Patent US11945796B2, “Substituted pyridine derivatives as SARM1 inhibitors” (Nura Bio, Inc., priority 2020, dated 2024)
Where two headings read alike, the source gives them in different places.

Target: T1, human SARM1(50-724) (Homo sapiens, UniProt Q6SZW1)
T1 construct: 40 nM human SARM1(50-724)
T1 sequence (Q6SZW1 50-724): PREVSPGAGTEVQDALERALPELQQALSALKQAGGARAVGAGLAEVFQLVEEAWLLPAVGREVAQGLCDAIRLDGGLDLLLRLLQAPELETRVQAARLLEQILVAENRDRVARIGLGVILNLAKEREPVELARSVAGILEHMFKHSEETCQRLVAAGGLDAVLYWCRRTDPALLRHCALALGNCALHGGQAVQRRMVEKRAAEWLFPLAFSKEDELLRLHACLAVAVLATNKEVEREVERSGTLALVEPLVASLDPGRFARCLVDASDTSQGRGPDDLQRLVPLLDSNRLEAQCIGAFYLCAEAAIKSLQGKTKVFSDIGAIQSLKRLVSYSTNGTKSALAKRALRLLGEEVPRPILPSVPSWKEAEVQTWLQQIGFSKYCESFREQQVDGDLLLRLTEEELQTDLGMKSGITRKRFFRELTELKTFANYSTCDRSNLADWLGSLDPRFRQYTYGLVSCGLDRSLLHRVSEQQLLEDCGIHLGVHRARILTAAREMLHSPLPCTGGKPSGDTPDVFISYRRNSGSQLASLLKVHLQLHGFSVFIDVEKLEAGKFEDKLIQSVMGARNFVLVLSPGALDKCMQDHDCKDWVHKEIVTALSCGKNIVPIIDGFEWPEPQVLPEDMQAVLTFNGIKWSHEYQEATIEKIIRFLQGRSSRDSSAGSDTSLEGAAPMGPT
Assay: SARM1 NADase biochemical assay (HPLC peak areas of NAD and NAM)
Conditions: for IC50: dose-response, 1:3 serial dilution from 100 μM, 40 nM SARM1, 0.3 mM NMN, 20 μM NAD, 60 min rt

[1] = 50 μM compound, NAD peak area, read-out: Avg NAD % inhibition at 50 μM
[2] = 50 μM compound, NAM peak area, read-out: Avg NAM % inhibition at 50 μM
[3] = read-out: Avg NAD % inhibition at 50 μM
[4] = read-out: Avg NAM % inhibition at 50 μM

| SMILES | inhibition at 50 µM [1] [%] | inhibition at 50 µM [2] [%] | IC50 [µM] | inhibition at 50 µM [3] [%] | inhibition at 50 µM [4] [%] |
| --- | --- | --- | --- | --- | --- |
| Cc1ccccc1C(=O)Nc1ccn(Cc2ccncc2)n1 [Example 48, 2-Methyl-N-(1-(pyridin-4-ylmethyl)-1H-pyrazol-3-yl)benzamide] | 0 to 50 | 0 to 50 |  |  |  |
| Cc1cccc(C(=O)Nc2ccn(Cc3ccncc3)n2)c1 [Example 49, 3-Methyl-N-(1-(pyridin-4-ylmethyl)-1H-pyrazol-3-yl)benzamide] | 0 to 50 | 0 to 50 |  |  |  |
| Cc1ccc(C(=O)Nc2ccn(Cc3ccncc3)n2)cc1 [Example 50, 4-Methyl-N-(1-(pyridin-4-ylmethyl)-1H-pyrazol-3-yl)benzamide] | 0 to 50 | 0 to 50 |  |  |  |
| N#Cc1ccccc1C(=O)Nc1ccn(Cc2ccncc2)n1 [Example 51, 2-Cyano-N-(1-(pyridin-4-ylmethyl)-1H-pyrazol-3-yl)benzamide] |  |  |  | 0 to 50 | 0 to 50 |
| N#Cc1ccc(C(=O)Nc2ccn(Cc3ccncc3)n2)cc1 [Example 52, 4-Cyano-N-(1-(pyridin-4-ylmethyl)-1H-pyrazol-3-yl)benzamide] | 0 to 50 | 0 to 50 |  |  |  |
| O=C(Nc1ccn(Cc2ccncc2)n1)c1ccccc1Cl [Example 53, 2-Chloro-N-(1-(pyridin-4-ylmethyl)-1H-pyrazol-3-yl)benzamide] | 0 to 50 | 0 to 50 |  |  |  |
| O=C(Nc1ccn(Cc2ccncc2)n1)c1cccc(Cl)c1 [Example 54, 3-Chloro-N-(1-(pyridin-4-ylmethyl)-1H-pyrazol-3-yl)benzamide] |  |  | 10 to 100 |  |  |
| O=C(Nc1ccn(Cc2ccncc2)n1)c1ccc(Cl)cc1 [Example 55, 4-Chloro-N-(1-(pyridin-4-ylmethyl)-1H-pyrazol-3-yl)benzamide] |  |  |  | 51 to 100 | 51 to 100 |
| O=C(Nc1ccn(Cc2ccncc2)n1)c1ccccc1C(F)(F)F [Example 56, N-(1-(Pyridin-4-ylmethyl)-1H-pyrazol-3-yl)-2-(trifluoromethyl)benzamide] | 0 to 50 | 0 to 50 |  |  |  |
| O=C(Nc1ccn(Cc2ccncc2)n1)c1ccc(C(F)(F)F)cc1 [Example 57, N-(1-(Pyridin-4-ylmethyl)-1H-pyrazol-3-yl)-4-(trifluoromethyl)benzamide] | 0 to 50 | 0 to 50 |  |  |  |
| O=C(Nc1ccn(Cc2ccncc2)n1)c1ccccc1F [Example 58, 2-Fluoro-N-(1-(pyridin-4-ylmethyl)-1H-pyrazol-3-yl)benzamide] | 0 to 50 | 0 to 50 |  |  |  |
| O=C(Nc1ccn(Cc2ccncc2)n1)c1cccc(F)c1 [Example 59, 3-Fluoro-N-(1-(pyridin-4-ylmethyl)-1H-pyrazol-3-yl)benzamide] | 0 to 50 | 0 to 50 |  |  |  |
| O=C(Nc1ccn(Cc2ccncc2)n1)c1ccccn1 [Example 61, N-(1-(Pyridin-4-ylmethyl)-1H-pyrazol-3-yl)picolinamide] | 0 to 50 | 0 to 50 |  |  |  |
| O=C(Nc1ccn(Cc2ccncc2)n1)c1cccnc1 [Example 62, N-(1-(Pyridin-4-ylmethyl)-1H-pyrazol-3-yl)nicotinamide] |  |  |  | 0 to 50 | 0 to 50 |
| O=C(Nc1ccn(Cc2ccncc2)n1)C1COc2ccccc2C1 (stereo not shown) [Example 63, N-(1-(Pyridin-4-ylmethyl)-1H-pyrazol-3-yl)chromane-3-carboxamide] |  |  | 1 to 10 |  |  |
| COc1ccc(C(=O)Nc2ccn(Cc3ccncc3)n2)s1 [Example 64, 5-Methoxy-N-(1-(pyridin-4-ylmethyl)-1H-pyrazol-3-yl)thiophene-2-carboxamide] | 0 to 50 | 0 to 50 |  |  |  |
| O=C(Nc1ccn(Cc2ccncc2)n1)c1ccccc1 [Example 69, N-(1-(Pyridin-4-ylmethyl)-1H-pyrazol-3-yl)benzamide] |  |  |  | 51 to 100 | 51 to 100 |
| O=S(=O)(Nc1ccn(Cc2ccncc2)n1)c1ccccc1 [Example 70, N-(1-(Pyridin-4-ylmethyl)-1H-pyrazol-3-yl)benzenesulfonamide] |  |  |  | 51 to 100 | 51 to 100 |
| COc1ccc(S(=O)(=O)N(C)c2ccn(Cc3ccncc3)n2)cc1 [Example 75, 4-Methoxy-N-methyl-N-(1-(pyridin-4-ylmethyl)-1H-pyrazol-3-yl)benzenesulfonamide] |  |  |  | 0 to 50 | 0 to 50 |
| CN(c1ccn(Cc2ccncc2)n1)S(=O)(=O)c1cccc(F)c1 [Example 77, 3-Fluoro-N-methyl-N-(1-(pyridin-4-ylmethyl)-1H-pyrazol-3-yl)benzenesulfonamide] |  |  |  | 0 to 50 | 0 to 50 |
| CCNc1ccn(Cc2ccncc2)n1 [Example 85, N-Ethyl-1-(pyridin-4-ylmethyl)-1H-pyrazol-3-amine] |  |  |  | 0 to 50 | 0 to 50 |
| CC(=O)Nc1ccn(Cc2ccncc2)n1 [Example 87, N-(1-(Pyridin-4-ylmethyl)-1H-pyrazol-3-yl)acetamide] |  |  |  | 0 to 50 | 0 to 50 |

Second part, led by results:

| inhibition at 50 µM [1] [%] | inhibition at 50 µM [2] [%] | IC50 [µM] | SMILES | inhibition at 50 µM [3] [%] | inhibition at 50 µM [4] [%] |
| --- | --- | --- | --- | --- | --- |
| 51 to 100 | 51 to 100 | 10 to 100 | O=C(Nc1ccn(Cc2ccncc2)n1)c1cc(Br)cs1 [Example 65, 4-Bromo-N-(1-(pyridin-4-ylmethyl)-1H-pyrazol-3-yl)thiophene-2-carboxamide] |  |  |
|  |  | 1 to 10 | O=C(Nc1ccn(Cc2ccncc2)n1)c1csc(Cl)c1 [Example 66, 5-Chloro-N-(1-(pyridin-4-ylmethyl)-1H-pyrazol-3-yl)thiophene-3-carboxamide] |  |  |
| 51 to 100 | 0 to 50 |  | Cc1cc(C(=O)Nc2ccn(Cc3ccncc3)n2)cs1 [Example 67, 5-Methyl-N-(1-(pyridin-4-ylmethyl)-1H-pyrazol-3-yl)thiophene-3-carboxamide] |  |  |
|  |  | 10 to 100 | O=C(Nc1ccn(Cc2ccncc2)n1)C(F)(F)F [Example 68, 2,2,2-Trifluoro-N-(1-(pyridin-4-ylmethyl)-1H-pyrazol-3-yl)acetamide] |  |  |
| 0 to 50 | 0 to 50 |  | O=S(=O)(Cc1ccccc1)Nc1ccn(Cc2ccncc2)n1 [Example 71, 1-Phenyl-N-(1-(pyridin-4-ylmethyl)-1H-pyrazol-3-yl)methanesulfonamide] |  |  |
| 0 to 50 | 0 to 50 |  | CC1(C)Oc2ccc(C(=O)Nc3ccn(Cc4ccncc4)n3)cc2O1 [Example 72, 2,2-Dimethyl-N-(1-(pyridin-4-ylmethyl)-1H-pyrazol-3-yl)benzo[d][1,3]dioxole-5-carboxamide] |  |  |
| 51 to 100 |  |  | O=C(Nc1ccn(Cc2ccncc2)n1)c1ccc(O)c(O)c1 [Example 73, 3,4-Dihydroxy-N-(1-(pyridin-4-ylmethyl)-1H-pyrazol-3-yl)benzamide] |  |  |
|  |  | 1 to 10 | COc1ccc(S(=O)(=O)Nc2ccn(Cc3ccncc3)n2)cc1 [Example 74, 4-Methoxy-N-(1-(pyridin-4-ylmethyl)-1H-pyrazol-3-yl)benzenesulfonamide] |  |  |
| 0 to 50 | 0 to 50 | 1 to 10 | O=S(=O)(Nc1ccn(Cc2ccncc2)n1)c1cccc(F)c1 [Example 76, 3-Fluoro-N-(1-(pyridin-4-ylmethyl)-1H-pyrazol-3-yl)benzenesulfonamide] |  |  |
|  |  | 10 to 100 | Cc1cc(Cc2ccncc2)nn1CC(F)(F)F [Example 83, 4-((5-Methyl-1-(2,2,2-trifluoroethyl)-1H-pyrazol-3-yl)methyl)pyridine] |  |  |
|  |  | 10 to 100 | Cc1cnccc1Cn1ccc(NCC(F)(F)F)n1 [Example 84, 1-((3-Methylpyridin-4-yl)methyl)-N-(2,2,2-trifluoroethyl)-1H-pyrazol-3-amine] |  |  |
| 0 to 50 | 0 to 50 |  | CNc1ccn(Cc2ccncc2)n1 [Example 86, N-Methyl-1-(pyridin-4-ylmethyl)-1H-pyrazol-3-amine] |  |  |
| 0 to 50 | 0 to 50 |  | O=S(=O)(Nc1ccn(Cc2ccncc2)n1)C(F)(F)F [Example 88, 1,1,1-Trifluoro-N-(1-(pyridin-4-ylmethyl)-1H-pyrazol-3-yl)methanesulfonamide] |  |  |
|  |  | 10 to 100 | C[C@H](c1ccncc1)n1ccc(NCC(F)(F)F)n1 [Example 89, (R)-1-(1-(Pyridin-4-yl)ethyl)-N-(2,2,2-trifluoroethyl)-1H-pyrazol-3-amine] |  |  |
|  |  | 10 to 100 | CN(CC(F)(F)F)c1ccn(Cc2ccncc2)n1 [Example 90, N-Methyl-1-(pyridin-4-ylmethyl)-N-(2,2,2-trifluoroethyl)-1H-pyrazol-3-amine] |  |  |
| 0 to 50 | 0 to 50 |  | c1cc(Cn2ccc(NCC3CC3)n2)ccn1 [Example 93, N-(Cyclopropylmethyl)-1-(pyridin-4-ylmethyl)-1H-pyrazol-3-amine] |  |  |
| 0 to 50 | 0 to 50 |  | CCCNc1ccn(Cc2ccncc2)n1 [Example 94, N-Propyl-1-(pyridin-4-ylmethyl)-1H-pyrazol-3-amine] |  |  |
